Where two headings read alike, the source gives them in different places.

The record followed here is patent US7071197B2, “N,N-disubstituted diazocycloalkanes” (Recordati S.A., priority 2002, dated 2006).

For assay [1], the target named is T1, post-synaptic 5-HT1A receptors (Rattus norvegicus, UniProt P19327).
T1 construct: from tissue; host or cells: whole animal, male Sprague-Dawley rat (in vivo)
T1 sequence (P19327 1-422): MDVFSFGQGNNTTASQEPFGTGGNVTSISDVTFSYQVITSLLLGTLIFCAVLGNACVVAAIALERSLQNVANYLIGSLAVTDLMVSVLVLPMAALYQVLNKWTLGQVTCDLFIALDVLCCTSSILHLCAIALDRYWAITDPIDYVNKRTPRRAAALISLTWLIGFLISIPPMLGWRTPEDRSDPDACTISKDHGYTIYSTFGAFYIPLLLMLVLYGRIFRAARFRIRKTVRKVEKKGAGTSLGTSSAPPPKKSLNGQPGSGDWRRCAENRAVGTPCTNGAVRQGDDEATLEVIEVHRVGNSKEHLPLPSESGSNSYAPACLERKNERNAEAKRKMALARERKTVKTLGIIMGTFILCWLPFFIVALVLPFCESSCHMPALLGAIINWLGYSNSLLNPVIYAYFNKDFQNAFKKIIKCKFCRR
Description: Inhibition of stereotypy (rhythmic forepaw treading) induced by 8-OH-DPAT in rats. In kind it is in vivo. The following applies: for inhibition at 1 mg/kg / inhibition at 3 mg/kg / inhibition at 10 mg/kg / inhibition at 0.01 mg/kg / inhibition at 0.03 mg/kg / inhibition at 0.1 mg/kg / inhibition at 0.3 mg/kg: rat; for inhibition at 1 mg/kg: 1 mg/kg p.o.; for inhibition at 3 mg/kg: 3 mg/kg p.o.; for inhibition at 10 mg/kg: 10 mg/kg p.o.; for inhibition at 0.01 mg/kg: 0.01 mg/kg i.v.; for inhibition at 0.03 mg/kg: 0.03 mg/kg i.v.; for inhibition at 0.1 mg/kg: 0.1 mg/kg i.v. The method, then: The inhibitory effect of 5-HT1A-receptor antagonists on stereotyped forepaw treading induced in rats by subcutaneous injection of 8-OH-DPAT was evaluated by the method of Tricklebank (Tricklebank et al., Eur. J. Pharmacol., 117: 15, 1985) with minor modifications as described below.
Male Sprague-Dawley rats [Crl: CD® (SD) IGS BR] weighing 150–175 g from Charles River Italia were used. The animals were housed with free access to food and water and maintained on a forced 12-hour-light/12-hour-dark cycle at 22–24° C. of temperature. On the day of the experiment, the rats were placed singly in clear plastic containers, 10–15 minutes before administration of the vehicle or compounds to be tested. For evaluation of antagonistic activity after intravenous or oral administration, the compounds were administered 1 and 4 hours before induction of stereotypy by 8-OH-DPAT (1 mg/kg subcutaneously). Observation sessions lasted 30 seconds and began 3 minutes after 8-OH-DPAT treatment and were repeated every 3 minutes over a period of 15 minutes.
The appearance of the symptom induced by postsynaptic stimulation of 5-HT1A receptors was noted, and the intensity was scored using an intensity scale in which: 0=absent, 1=equivocal, 2=present and 3=intense. Behavioural scores for treated rats were accumulated throughout the observation time (5 observation periods) and expressed as mean values of 4 rats/dose. Change in mean values of treated animals in comparison with control (vehicle) group, expressed as per-cent inhibition, was used to quantify the antagonistic activity.

For assay [2], the target named is T2, human 5HT1A-serotonergic receptor (Homo sapiens, UniProt P08908).
T2 construct: expressed in transfected cells
T2 sequence (P08908 1-422): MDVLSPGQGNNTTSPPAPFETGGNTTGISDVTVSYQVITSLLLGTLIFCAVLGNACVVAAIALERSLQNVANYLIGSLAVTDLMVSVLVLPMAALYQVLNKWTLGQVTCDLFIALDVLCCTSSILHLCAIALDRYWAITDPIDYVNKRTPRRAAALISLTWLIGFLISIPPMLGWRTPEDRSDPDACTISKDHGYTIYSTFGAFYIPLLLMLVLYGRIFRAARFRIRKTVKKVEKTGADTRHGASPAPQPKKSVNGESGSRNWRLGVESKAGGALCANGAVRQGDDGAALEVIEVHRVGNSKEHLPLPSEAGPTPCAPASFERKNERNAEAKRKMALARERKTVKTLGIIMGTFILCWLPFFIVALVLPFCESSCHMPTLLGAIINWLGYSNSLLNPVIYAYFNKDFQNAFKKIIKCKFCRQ
In words: [3H]8-OH-DPAT radioligand binding to human recombinant 5-HT1A receptors. The following applies: for Ki: [3H]8-OH-DPAT, HeLa cell membranes, read-out: Affinity: Ki; for potency at the 5-HT1A receptor compared with Ex. 5: statistical signficance p<0.01. The method, then:
A genomic clone coding for the human 5HT1A-serotonergic receptor was stably transfected in a human cell line (HeLa). HeLa cells were grown as monolayers in Dulbecco's modified Eagle medium (DMEM), containing 10% fetal bovine serum, gentamycin (0.1 mg/ml) and 5% carbon dioxide, at 37° C. The cells were detached from the growth flask at 95% confluence by a cell scraper and were lysed in cold 5 mM Tris and 5 mM EDTA buffer (pH 7.4). The homogenates were centrifuged at 40000×g×20 minutes and the pellets were resuspended in a small volume of cold 5 mM Tris and 5 mM EDTA buffer (pH 7.4) and immediately frozen and stored at −70° C. until use.
[^3H]8-OH-DPAT binding: on the day of experiment, the cell membranes were resuspended in incubation buffer: 50 mM Tris HCl (pH 7.4), 2.5 mM MgCl2, […] (Fargin et al., Nature 335, 358–360, 1988). The membranes were incubated in a final volume of 1 ml for 30 minutes at 30° C. with 1 nM [^3H]8-OH-DPAT, in the absence or presence of the test compounds. Non-specific binding was determined in the presence of 10 μM 5-HT. Incubation was stopped by addition of cold Tris-HCl buffer and rapid filtration through a 0.2%-polyethyleneimine-pretreated Whatman-GF/B or Schleicher-&-Schuell-GF52 filter.
The affinity of the tested compounds was evaluated as inhibition of specific binding of the radioligand to 5-HT1A receptors (IC50) by using the non-linear curve-fitting program (De Lean et al., Am. J. Physiol. 235, E97-E102, 1978). The IC50 value was converted to an affinity constant (Ki) by the equation of Cheng et al., Biochem. Pharmacol. 22, 3099–3108 (1973).

The mark [3] stands for this setting: after intravenous administration.
[4] abbreviates: iv, 0.3 mg/kg i.v., 1 h before 8-OH-DPAT.
Setting [5] is: iv, 0.3 mg/kg i.v., 4 h before 8-OH-DPAT.
Where [6] appears, read: po, 0.3 mg/kg p.o., 1 h before 8-OH-DPAT.
Where [7] appears, read: po, 0.3 mg/kg p.o., 4 h before 8-OH-DPAT.

Broadly, the inhibition is the percentage by which the read-out fell short of the control. A low value points to a response near the control. As a reminder, the Ki is a dissociation constant, usually derived from enzyme kinetics or from competition with a known ligand. For the compound `COc1ccccc1N1CCN(CC[C@@H](c2ccccc2F)[C@H](O)C2CCCCC2)CC1` (racemic) [Ex. 1, 1-[(SR-RS)-4-cyclohexyl-4-hydroxy-3-(2-fluorophenyl)-butyl]-4-(2-methoxyphenyl)-piperazine], in assay [1] (1 h p.o.), the “ED75 (equieffective dose inhibiting the forepaw treading by 75%)” value is reported as 1 h p.o.: ED75 = 3.3 mg/kg/. In assay [1] (4 h p.o.), the “ED75 (equieffective dose inhibiting the forepaw treading by 75%)” value is recorded as 4 h p.o.: ED75 = 4.0 mg/kg. In assay [1] (po, 1 h before 8-OH-DPAT), this compound came in with an inhibition at 1 mg/kg of 35%, an inhibition at 3 mg/kg of 84% and an inhibition at 10 mg/kg of 100%. In assay [1] (po, 4 h before 8-OH-DPAT), this compound registered an inhibition at 1 mg/kg of 37%, an inhibition at 3 mg/kg of 72% and an inhibition at 10 mg/kg of 96%. Besides, in assay [2], the inhibition constant Ki amounted to 0.13 nM and the “potency at the 5-HT1A receptor compared with Ex. 5” value (shortened to “potency … compared with Ex. 5”) is “more potent than Ex. 5”.

For `COc1ccccc1N1CCN(CC[C@H](c2ccccc2)[C@@H](O)C2CCCCC2)CC1` (racemic) [Ex. 5, 1-[(RS,SR)-4-Cyclohexyl-4-hydroxy-3-phenyl-butyl]-4-(2-methoxyphenyl)-piperazine, reference compound], the “ED75 (equieffective dose inhibiting the forepaw treading by 75%)” value in assay [1] is 4 h p.o.: ED75 = 4.6 mg/kg; in assay [1] (1 h i.v.) it was 1 h i.v.: ED75 = 0.032 mg/kg/; in assay [1] (1 h p.o.), 1 h p.o.: ED75 = 2.1 mg/kg/; in assay [1] (4 h i.v.) it was 4 h i.v.: ED75 = 0.138 mg/kg. Besides, the “potency in inhibiting forepaw treading, comparison” value in assay [1] (setting [3]) is given as “practically equipotent”. The inhibition at 0.01 mg/kg came out at 41% in assay [1] (iv, 1 h before 8-OH-DPAT) and 26% in assay [1] (iv, 4 h before 8-OH-DPAT). For the same compound, the inhibition at 0.03 mg/kg in assay [1] (iv, 1 h before 8-OH-DPAT) was 82%; in assay [1] (iv, 4 h before 8-OH-DPAT), 54%. Moreover, the inhibition at 0.1 mg/kg in assay [1] (iv, 1 h before 8-OH-DPAT) turned out to be 100%; in assay [1] (iv, 4 h before 8-OH-DPAT) it was 72%. In addition, the inhibition at 0.3 mg/kg in assay [1] (setting [4]) was 100%; in assay [1] (setting [5]), 85%; in assay [1] (setting [6]) it was 8%; in assay [1] (setting [7]), 20%. In addition, the inhibition at 1 mg/kg is 42% in assay [1] (po, 1 h before 8-OH-DPAT) and 46% in assay [1] (po, 4 h before 8-OH-DPAT). For the same compound, the inhibition at 3 mg/kg in assay [1] (po, 1 h before 8-OH-DPAT) came to 90%; in assay [1] (po, 4 h before 8-OH-DPAT), 67%. Moreover, the inhibition constant Ki in assay [2] is 0.65 nM.

As to `COc1ccccc1N1CCN(CC[C@H](c2ccccc2F)[C@@H](O)C2CCCCC2)CC1` [Ex. 1Y, 1-[(3R,4S)-4-cyclohexyl-4-hydroxy-3-(2-fluorophenyl)-butyl]-4-(2-methoxyphenyl)-piperazine], the “ED75 (equieffective dose inhibiting the forepaw treading by 75%)” value in assay [1] (1 h i.v.) is 1 h i.v.: ED75 = 0.038 mg/kg/; in assay [1] (1 h p.o.), 1 h p.o.: ED75 = 1.7 mg/kg/; in assay [1] (4 h i.v.), 4 h i.v.: ED75 = 0.182 mg/kg; in assay [1] (4 h p.o.) it was 4 h p.o.: ED75 = 2.6 mg/kg. The “potency in inhibiting forepaw treading, comparison” value in assay [1] (setting [3]) is given as “practically equipotent”; in assay [1] (after oral administration, in particular at four hours) it was “more potent than Ex. 5”. Also, the inhibition at 0.01 mg/kg was 37% in assay [1] (iv, 1 h before 8-OH-DPAT) and 11% in assay [1] (iv, 4 h before 8-OH-DPAT). Further, the inhibition at 0.03 mg/kg came out at 72% in assay [1] (iv, 1 h before 8-OH-DPAT) and 35% in assay [1] (iv, 4 h before 8-OH-DPAT). Besides, the inhibition at 0.1 mg/kg in assay [1] (iv, 1 h before 8-OH-DPAT) was found to be 100%; in assay [1] (iv, 4 h before 8-OH-DPAT), 65%. Moreover, the inhibition at 0.3 mg/kg came to 100% in assay [1] (setting [4]), 84% in assay [1] (setting [5]), 18% in assay [1] (setting [6]) and 18% in assay [1] (setting [7]). Moreover, the inhibition at 1 mg/kg in assay [1] (po, 1 h before 8-OH-DPAT) stood at 58%; in assay [1] (po, 4 h before 8-OH-DPAT), 38%. The inhibition at 3 mg/kg was determined as 92% in assay [1] (po, 1 h before 8-OH-DPAT) and 85% in assay [1] (po, 4 h before 8-OH-DPAT). For the same compound, the Ki in assay [2] was 0.37 nM. Further, the “potency … compared with Ex. 5” value in assay [2] is “more potent than Ex. 5”.

Regarding `COc1ccccc1N1CCN(CC[C@H](c2ccccc2F)[C@H](O)C2CCCCC2)CC1` [Ex. 2X, 1-[(3R,4R)-4-cyclohexyl-4-hydroxy-3-(2-fluorophenyl)-butyl]-4-(2-methoxyphenyl)-piperazine], the “ED75 (equieffective dose inhibiting the forepaw treading by 75%)” value in assay [1] (1 h i.v.) is recorded as 1 h i.v.: ED75 = 0.041 mg/kg/. The “ED75 (equieffective dose inhibiting the forepaw treading by 75%)” value in assay [1] (4 h i.v.) was 4 h i.v.: ED75 = 0.152 mg/kg. For the same compound, in assay [1] (setting [3]), the “potency in inhibiting forepaw treading, comparison” value is given as “practically equipotent”. In assay [1] (iv, 1 h before 8-OH-DPAT), this compound registered an inhibition at 0.01 mg/kg of 39%, an inhibition at 0.03 mg/kg of 65% and an inhibition at 0.1 mg/kg of 100%. In assay [1] (iv, 4 h before 8-OH-DPAT), this compound gave an inhibition at 0.01 mg/kg of 6%, an inhibition at 0.03 mg/kg of 49% and an inhibition at 0.1 mg/kg of 63%. For the same compound, testing at 0.3 mg/kg in assay [1] (setting [4]) gave an inhibition of 100%. In assay [1] (setting [5]), this compound gave an inhibition at 0.3 mg/kg of 89%. In addition, in assay [2], the inhibition constant Ki was determined as 0.24 nM and the “potency … compared with Ex. 5” value is on record as “more potent than Ex. 5”.
